Reference: ChEMBL document CHEMBL4396865, “Current advances of triazole alcohols derived from fluconazole: Design, in vitro and in silico studies” (2019)
Converted amounts (≈) assume the structure as drawn.

How the values were obtained:
Format in all cases: functional
Candida albicans = experiment: Antifungal activity against Candida albicans after 24 hrs by NCCLS protocol based method
Candida tropicalis = experiment: Antifungal activity against Candida tropicalis after 24 hrs by NCCLS protocol based method
Cryptococcus neoformans = experiment: Antifungal activity against Cryptococcus neoformans after 72 hrs by NCCLS protocol based method
Trichophyton rubrum = experiment: Antifungal activity against Trichophyton rubrum after 7 days by NCCLS protocol based method; details: 168 h
Candida parapsilosis = experiment: Antifungal activity against Candida parapsilosis after 24 hrs by NCCLS protocol based method; details: Lodderomyces parapsilosis
Fonsecaea compacta = experiment: Antifungal activity against Fonsecaea compacta after 24 hrs by NCCLS protocol based method
Nannizzia gypsea = experiment: Antifungal activity against Microsporum gypseum after 7 days by NCCLS protocol based method; details: 168 h

| MIC80 (Candida albicans) [ng/mL] | MIC80 (Candida tropicalis) [ng/mL] | MIC80 (Cryptococcus neoformans) [ng/mL] | MIC80 (Trichophyton rubrum) [ng/mL] | MIC80 (Candida parapsilosis) [ng/mL] | MIC80 (Fonsecaea compacta) [ng/mL] | MIC (Candida albicans) [ng/mL] | MIC (Candida tropicalis) [ng/mL] | MIC (Cryptococcus neoformans) [ng/mL] | MIC (Trichophyton rubrum) [ng/mL] | MIC (Nannizzia gypsea) [ng/mL] | SMILES |
| --- | --- | --- | --- | --- | --- | --- | --- | --- | --- | --- | --- |
| 3.9 to 62.5 (≈ 7.41 to 119 nM) | 3.9 to 62.5 (≈ 7.41 to 119 nM) | 3.9 to 62.5 (≈ 7.41 to 119 nM) | 3.9 to 62.5 (≈ 7.41 to 119 nM) | 3.9 to 62.5 (≈ 7.41 to 119 nM) | 3.9 to 62.5 (≈ 7.41 to 119 nM) | – | – | – | – | – | CCCCCCc1ccc(C(=O)OC2CCN(CC(O)(Cn3cncn3)c3ccc(F)cc3F)CC2)cc1 (configuration not stated) |
| 3.9 to 62.5 (≈ 8.29 to 133 nM) | 3.9 to 62.5 (≈ 8.29 to 133 nM) | 3.9 to 62.5 (≈ 8.29 to 133 nM) | 3.9 to 62.5 (≈ 8.29 to 133 nM) | 3.9 to 62.5 (≈ 8.29 to 133 nM) | 3.9 to 62.5 (≈ 8.29 to 133 nM) | – | – | – | – | – | Cc1ccc(C(=O)OC2CCN(CC(O)(Cn3cncn3)c3ccc(F)cc3F)CC2)c(C)c1 (configuration not stated) |
| 3.9 to 62.5 (≈ 8.29 to 133 nM) | 3.9 to 62.5 (≈ 8.29 to 133 nM) | 3.9 to 62.5 (≈ 8.29 to 133 nM) | 3.9 to 62.5 (≈ 8.29 to 133 nM) | 3.9 to 62.5 (≈ 8.29 to 133 nM) | 3.9 to 62.5 (≈ 8.29 to 133 nM) | – | – | – | – | – | Cc1ccc(C(=O)OC2CCN(CC(O)(Cn3cncn3)c3ccc(F)cc3F)CC2)cc1C (configuration not stated) |
| 3.9 to 62.5 (≈ 8.81 to 141 nM) | 3.9 to 62.5 (≈ 8.81 to 141 nM) | 3.9 to 62.5 (≈ 8.81 to 141 nM) | 3.9 to 62.5 (≈ 8.81 to 141 nM) | 3.9 to 62.5 (≈ 8.81 to 141 nM) | 3.9 to 62.5 (≈ 8.81 to 141 nM) | – | – | – | – | – | O=C(OC1CCN(CC(O)(Cn2cncn2)c2ccc(F)cc2F)CC1)c1ccccc1 (configuration not stated) |
| 3.9 to 62.5 (≈ 8.54 to 137 nM) | 3.9 to 62.5 (≈ 8.54 to 137 nM) | 3.9 to 62.5 (≈ 8.54 to 137 nM) | 3.9 to 62.5 (≈ 8.54 to 137 nM) | 3.9 to 62.5 (≈ 8.54 to 137 nM) | 3.9 to 62.5 (≈ 8.54 to 137 nM) | – | – | – | – | – | Cc1cccc(C(=O)OC2CCN(CC(O)(Cn3cncn3)c3ccc(F)cc3F)CC2)c1 (configuration not stated) |
| 3.9 to 62.5 (≈ 8.05 to 129 nM) | 3.9 to 62.5 (≈ 8.05 to 129 nM) | 3.9 to 62.5 (≈ 8.05 to 129 nM) | 3.9 to 62.5 (≈ 8.05 to 129 nM) | 3.9 to 62.5 (≈ 8.05 to 129 nM) | 3.9 to 62.5 (≈ 8.05 to 129 nM) | – | – | – | – | – | CCCc1ccc(C(=O)OC2CCN(CC(O)(Cn3cncn3)c3ccc(F)cc3F)CC2)cc1 (configuration not stated) |
| 3.9 to 62.5 (≈ 8.25 to 132 nM) | 3.9 to 62.5 (≈ 8.25 to 132 nM) | 3.9 to 62.5 (≈ 8.25 to 132 nM) | 3.9 to 62.5 (≈ 8.25 to 132 nM) | 3.9 to 62.5 (≈ 8.25 to 132 nM) | 3.9 to 62.5 (≈ 8.25 to 132 nM) | – | – | – | – | – | COc1ccccc1C(=O)OC1CCN(CC(O)(Cn2cncn2)c2ccc(F)cc2F)CC1 (configuration not stated) |
| 3.9 to 62.5 (≈ 8.54 to 137 nM) | 3.9 to 62.5 (≈ 8.54 to 137 nM) | 3.9 to 62.5 (≈ 8.54 to 137 nM) | 3.9 to 62.5 (≈ 8.54 to 137 nM) | 3.9 to 62.5 (≈ 8.54 to 137 nM) | 3.9 to 62.5 (≈ 8.54 to 137 nM) | – | – | – | – | – | Cc1ccc(C(=O)OC2CCN(CC(O)(Cn3cncn3)c3ccc(F)cc3F)CC2)cc1 (configuration not stated) |
| 3.9 to 62.5 (≈ 8.29 to 133 nM) | 3.9 to 62.5 (≈ 8.29 to 133 nM) | 3.9 to 62.5 (≈ 8.29 to 133 nM) | 3.9 to 62.5 (≈ 8.29 to 133 nM) | 3.9 to 62.5 (≈ 8.29 to 133 nM) | 3.9 to 62.5 (≈ 8.29 to 133 nM) | – | – | – | – | – | CCc1ccc(C(=O)OC2CCN(CC(O)(Cn3cncn3)c3ccc(F)cc3F)CC2)cc1 (configuration not stated) |
| 3.9 to 62.5 (≈ 8 to 128 nM) | 3.9 to 62.5 (≈ 8 to 128 nM) | 3.9 to 62.5 (≈ 8 to 128 nM) | 3.9 to 62.5 (≈ 8 to 128 nM) | 3.9 to 62.5 (≈ 8 to 128 nM) | 3.9 to 62.5 (≈ 8 to 128 nM) | – | – | – | – | – | O=C(OC1CCN(CC(O)(Cn2cncn2)c2ccc(F)cc2F)CC1)c1cccc([N+](=O)[O-])c1 (configuration not stated) |
| 3.9 to 62.5 (≈ 8.47 to 136 nM) | 3.9 to 62.5 (≈ 8.47 to 136 nM) | 3.9 to 62.5 (≈ 8.47 to 136 nM) | 3.9 to 62.5 (≈ 8.47 to 136 nM) | 3.9 to 62.5 (≈ 8.47 to 136 nM) | 3.9 to 62.5 (≈ 8.47 to 136 nM) | – | – | – | – | – | O=C(OC1CCN(CC(O)(Cn2cncn2)c2ccc(F)cc2F)CC1)c1ccccc1F (configuration not stated) |
| 3.9 to 62.5 (≈ 8 to 128 nM) | 3.9 to 62.5 (≈ 8 to 128 nM) | 3.9 to 62.5 (≈ 8 to 128 nM) | 3.9 to 62.5 (≈ 8 to 128 nM) | 3.9 to 62.5 (≈ 8 to 128 nM) | 3.9 to 62.5 (≈ 8 to 128 nM) | – | – | – | – | – | O=C(OC1CCN(CC(O)(Cn2cncn2)c2ccc(F)cc2F)CC1)c1ccc([N+](=O)[O-])cc1 (configuration not stated) |

More lines, now with the values behind:

| SMILES | MIC80 (Candida albicans) [ng/mL] | MIC80 (Candida tropicalis) [ng/mL] | MIC80 (Cryptococcus neoformans) [ng/mL] | MIC80 (Trichophyton rubrum) [ng/mL] | MIC80 (Candida parapsilosis) [ng/mL] | MIC80 (Fonsecaea compacta) [ng/mL] | MIC (Candida albicans) [ng/mL] | MIC (Candida tropicalis) [ng/mL] | MIC (Cryptococcus neoformans) [ng/mL] | MIC (Trichophyton rubrum) [ng/mL] | MIC (Nannizzia gypsea) [ng/mL] |
| --- | --- | --- | --- | --- | --- | --- | --- | --- | --- | --- | --- |
| CN(CCCOc1ccc([N+](=O)[O-])cc1)CC(O)(Cn1cncn1)c1ccc(F)cc1F (configuration not stated) | – | – | – | – | – | – | 1 (≈ 2.23 nM) | 1 (≈ 2.23 nM) | 1 (≈ 2.23 nM) | 1 (≈ 2.23 nM) | 1 (≈ 2.23 nM) |
| Cc1ccc(OCCCCN(C)CC(O)(Cn2cncn2)c2ccc(F)cc2F)cc1 (configuration not stated) | – | – | – | – | – | – | 1 (≈ 2.32 nM) | 1 (≈ 2.32 nM) | 1 (≈ 2.32 nM) | 1 (≈ 2.32 nM) | 1 (≈ 2.32 nM) |
| CN(CCCOc1cccc([N+](=O)[O-])c1)CC(O)(Cn1cncn1)c1ccc(F)cc1F (configuration not stated) | – | – | – | – | – | – | 1 to 16 (≈ 2.23 to 35.8 nM) | 1 to 16 (≈ 2.23 to 35.8 nM) | 1 to 16 (≈ 2.23 to 35.8 nM) | 1 to 16 (≈ 2.23 to 35.8 nM) | 1 to 16 (≈ 2.23 to 35.8 nM) |
| Cc1ccccc1OCCCN(C)CC(O)(Cn1cncn1)c1ccc(F)cc1F (configuration not stated) | – | – | – | – | – | – | 1 to 16 (≈ 2.4 to 38.4 nM) | 1 to 16 (≈ 2.4 to 38.4 nM) | 1 to 16 (≈ 2.4 to 38.4 nM) | 1 to 16 (≈ 2.4 to 38.4 nM) | 1 to 16 (≈ 2.4 to 38.4 nM) |
| CN(CCCCOc1ccc(Cl)cc1)CC(O)(Cn1cncn1)c1ccc(F)cc1F (configuration not stated) | – | – | – | – | – | – | 1 (≈ 2.22 nM) | 1 (≈ 2.22 nM) | 1 (≈ 2.22 nM) | 1 (≈ 2.22 nM) | 1 (≈ 2.22 nM) |
| CN(CCCOc1ccc(C(C)(C)C)cc1)CC(O)(Cn1cncn1)c1ccc(F)cc1F (configuration not stated) | – | – | – | – | – | – | 1 to 16 (≈ 2.18 to 34.9 nM) | 1 to 16 (≈ 2.18 to 34.9 nM) | 1 to 16 (≈ 2.18 to 34.9 nM) | 1 to 16 (≈ 2.18 to 34.9 nM) | 1 to 16 (≈ 2.18 to 34.9 nM) |
| COc1ccc(OCCCN(C)CC(O)(Cn2cncn2)c2ccc(F)cc2F)cc1 (configuration not stated) | – | – | – | – | – | – | 1 to 16 (≈ 2.31 to 37 nM) | 1 to 16 (≈ 2.31 to 37 nM) | 1 to 16 (≈ 2.31 to 37 nM) | 1 to 16 (≈ 2.31 to 37 nM) | 1 to 16 (≈ 2.31 to 37 nM) |
| Cc1cccc(OCCCN(C)CC(O)(Cn2cncn2)c2ccc(F)cc2F)c1 (configuration not stated) | – | – | – | – | – | – | 1 (≈ 2.4 nM) | 1 (≈ 2.4 nM) | 1 (≈ 2.4 nM) | 1 (≈ 2.4 nM) | 1 (≈ 2.4 nM) |
| CN(CCCCOc1ccccc1[N+](=O)[O-])CC(O)(Cn1cncn1)c1ccc(F)cc1F (configuration not stated) | – | – | – | – | – | – | 1 to 16 (≈ 2.17 to 34.7 nM) | 1 to 16 (≈ 2.17 to 34.7 nM) | 1 to 16 (≈ 2.17 to 34.7 nM) | 1 to 16 (≈ 2.17 to 34.7 nM) | 1 to 16 (≈ 2.17 to 34.7 nM) |
| Cc1cccc(OCCCCN(C)CC(O)(Cn2cncn2)c2ccc(F)cc2F)c1 (configuration not stated) | – | – | – | – | – | – | 1 (≈ 2.32 nM) | 1 (≈ 2.32 nM) | 1 (≈ 2.32 nM) | 1 (≈ 2.32 nM) | 1 (≈ 2.32 nM) |
